Data from paper PMC8151276, “An Integrated Approach toward NanoBRET Tracers for Analysis of GPCR Ligand Engagement” (Molecules, 2021).
Blank lines part the entries; values can stand above or below the compound they belong to.

Columns and labels:
Assay type in all cases: binding
[1] = target: T1, HTR1F (Homo sapiens, UniProt P30939); experiment: NanoBRET screen HiBiT-HTR1F in HEK293
T1 construct: purchased Promega (in-house HiBiT-GPCR construct library, NanoBRET)
T1 sequence (P30939 1-366): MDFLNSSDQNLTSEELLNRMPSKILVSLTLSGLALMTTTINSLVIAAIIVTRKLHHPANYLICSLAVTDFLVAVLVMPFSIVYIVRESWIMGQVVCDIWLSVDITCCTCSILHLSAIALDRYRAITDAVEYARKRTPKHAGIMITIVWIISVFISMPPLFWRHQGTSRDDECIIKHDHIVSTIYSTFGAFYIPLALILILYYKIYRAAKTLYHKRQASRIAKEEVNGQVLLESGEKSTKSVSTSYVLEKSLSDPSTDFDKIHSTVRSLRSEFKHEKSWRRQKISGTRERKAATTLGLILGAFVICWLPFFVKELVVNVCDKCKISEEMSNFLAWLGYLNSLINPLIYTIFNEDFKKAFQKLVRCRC
Protocol: (§1) Each tracer candidate was screened across the entire library of HiBiT-GPCR constructs using NanoBRET as the detection modality. As depicted in Figure 4A, the specificity of interactions was evaluated through decrease in BRET due to competitive displacement of a bound tracer by excess parental compound. Each tracer was analyzed for binding to each HiBiT-GPCR fusion in the absence and in the presence of competing parental compound. Briefly, HEK293 cells were transfected with HiBiT-GPCR constructs diluted into promoterless DNA to reduce expression and maximize translocation to the cell surface. Each tracer candidate was then screened at concentrations of 1 μM and 0.1 μM across cells expressing these fusions. Cells were treated for 1.5 h with tracer either alone or in the presence of 20 μM competing parental compound (i.e., control). BRET was measured upon addition of purified LgBiT and subsequent complementation with HiBiT genetically fused to a GPCR. The specificity of interactions was assessed through a decrease in BRET signal due to competitive displacement of the bound tracer. To further gauge the robustness of these interactions, the fold response over the control (i.e., BRETtracer/BRETcontrol) was calculated. We chose a 1.5-fold response, which translates to ≥7-fold signal over noise as the minimal threshold required to score an interaction as positive.
(§2) HiBiT-GPCR DNA constructs were diluted in 10 mM Tris pH 8 to a final concentration of 0.01 μg/μL, arrayed in 96-well plates and stored at −20 °C. For transfection, HEK293 cells were suspended in Opti-MEM (without phenol red) supplemented with 2% fetal bovine serum (Seradigm) and 100 units/mL penicillin–streptomycin (Gibco) at a final concentration of 220,000 cells/mL and dispensed into white 96-well plates at 90 μL/well. Subsequent transfections and screens were carried using an Agilent Bravo Automated Liquid Handling Platform. First, the 96-well HiBiT DNA arrays were diluted 25-fold in Opti-MEM (without serum or phenol red) to a final concentration of 0.0004 μg/μL and 20 μL of the diluted DNAs were transferred into new 96-well plates. Next, promoterless carrier DNA (1 μg/μL) was diluted 25-fold (0.04 μg/μL) and then dispensed into the diluted arrays at 20 μL/well. Following brief mixing, Viafect transfection reagent (Promega) diluted 16-fold into Opti-MEM was dispensed into the plates at 40 μL/well. After mixing by pipetting, plates were incubated for 10 min on the pipetting station deck. The DNA-transfection reagent complexes were then added to plates containing cells. To facilitate the screen, 10 μL of DNA-transfection reagent complexes were added in duplicates to the top 4 and bottom 4 rows, resulting in two identical 48-well arrays per plate. Plates with transfected cells were incubated for 18–20 h at 37 °C/5% CO2. A screen of each tracer across the entire library using two different concentrations requires duplicate plates of transfected cells. Depending on the number of tracers being screened, transfections can be scaled up using the same ratios. The next day, for each tracer, four 20× screening solutions in tracer dilution buffer (Promega) were prepared: two duplicates at final concentration of 20 μM and two duplicates at a final concentration of 2 μM. […] The four resulting solutions were diluted 4-fold in Opti-MEM without serum or phenol red to generate 5× solutions (5 µM and 0.5 µM tracer +/− 100 μM competing compound). To screen the library, a BioTek MultiFlo FX liquid dispenser was used to dispense 22.5 µL of tracer solution to the top 4 rows and 22.5 µL tracer + competing compound solution to the 4 bottom rows. Plates were briefly mixed on an orbital shaker and incubated for 1.5 h at room temperature. […] Plates were briefly mixed on an orbital shaker and incubated for 15 min to allow complementation.

[2] = target: T2, CCR10 (Homo sapiens, UniProt P46092); experiment: NanoBRET screen HiBiT-CCR10 in HEK293
T2 construct: purchased Promega (in-house HiBiT-GPCR construct library, NanoBRET)
T2 sequence (P46092 1-362): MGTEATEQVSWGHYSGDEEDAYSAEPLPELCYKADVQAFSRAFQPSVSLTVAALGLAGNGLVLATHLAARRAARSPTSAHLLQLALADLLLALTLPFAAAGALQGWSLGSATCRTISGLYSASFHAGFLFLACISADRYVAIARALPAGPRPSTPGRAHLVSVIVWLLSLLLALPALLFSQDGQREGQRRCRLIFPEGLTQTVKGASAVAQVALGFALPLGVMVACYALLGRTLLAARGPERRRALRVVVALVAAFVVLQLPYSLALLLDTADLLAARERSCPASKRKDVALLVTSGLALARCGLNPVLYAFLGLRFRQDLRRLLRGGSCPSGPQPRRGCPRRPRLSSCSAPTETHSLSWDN
Protocol: as §1, §2

[3] = target: T3, ADRA1A (Homo sapiens, UniProt P35348); experiment: NanoBRET screen HiBiT-ADRA1A in HEK293
T3 construct: purchased Promega (in-house HiBiT-GPCR construct library, NanoBRET)
T3 sequence (P35348 1-466): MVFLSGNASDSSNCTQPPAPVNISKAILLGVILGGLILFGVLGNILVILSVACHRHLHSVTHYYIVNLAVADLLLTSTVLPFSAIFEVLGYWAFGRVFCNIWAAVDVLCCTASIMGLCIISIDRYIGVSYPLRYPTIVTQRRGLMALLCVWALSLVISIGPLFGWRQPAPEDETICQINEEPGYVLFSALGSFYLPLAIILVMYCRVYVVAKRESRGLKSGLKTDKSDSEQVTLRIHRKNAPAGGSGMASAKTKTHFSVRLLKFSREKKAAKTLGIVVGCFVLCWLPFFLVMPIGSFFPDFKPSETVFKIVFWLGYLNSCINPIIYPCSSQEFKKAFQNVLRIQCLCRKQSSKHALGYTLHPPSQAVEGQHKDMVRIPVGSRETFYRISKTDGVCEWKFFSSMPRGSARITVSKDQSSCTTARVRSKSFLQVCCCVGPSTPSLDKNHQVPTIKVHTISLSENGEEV
Protocol: as §1, §2

[4] = target: T4, GPR50 (Homo sapiens, UniProt Q13585); experiment: NanoBRET screen HiBiT-GPR50 in HEK293
T4 construct: purchased Promega (in-house HiBiT-GPCR construct library, NanoBRET)
T4 sequence (Q13585 whole entry): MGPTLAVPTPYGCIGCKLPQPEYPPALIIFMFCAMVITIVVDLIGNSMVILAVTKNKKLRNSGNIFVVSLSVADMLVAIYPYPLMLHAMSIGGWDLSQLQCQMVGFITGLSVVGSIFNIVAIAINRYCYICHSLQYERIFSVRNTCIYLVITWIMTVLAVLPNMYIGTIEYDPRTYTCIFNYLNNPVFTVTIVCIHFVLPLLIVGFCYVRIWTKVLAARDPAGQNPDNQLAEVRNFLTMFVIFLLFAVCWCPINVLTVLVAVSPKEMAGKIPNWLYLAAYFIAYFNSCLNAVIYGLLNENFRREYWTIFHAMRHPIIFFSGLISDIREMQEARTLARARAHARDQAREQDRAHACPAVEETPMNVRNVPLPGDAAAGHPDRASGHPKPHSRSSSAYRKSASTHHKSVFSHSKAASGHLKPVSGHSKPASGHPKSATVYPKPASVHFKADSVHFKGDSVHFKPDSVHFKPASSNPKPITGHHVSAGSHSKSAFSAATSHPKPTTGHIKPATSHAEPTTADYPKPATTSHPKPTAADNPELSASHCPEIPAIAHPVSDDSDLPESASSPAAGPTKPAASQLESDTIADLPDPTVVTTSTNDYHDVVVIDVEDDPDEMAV
Protocol: as §1, §2

[5] = tracer at 0.1μM, listed as amitriptyline-b-2-NB590
[6] = tracer at 1μM, listed as amitriptyline-b-2-NB590

Compound: CN(C)CCC=C1c2ccccc2CCc2ccc(C(=O)NCCNC(=O)CCOCCOCCOCCOCCNC(=O)CCc3ccc4n3[B-](F)(F)[N+]3=C(c5ccc[nH]5)C=CC3=C4)cc21 [Amitriptyline-a-2-NB590]
NanoBRET Fold Response ([1]; tracer at 0.1μM): 0.97
NanoBRET Fold Response ([1]; tracer at 1μM): 1.02
NanoBRET Fold Response ([2]; tracer at 0.1μM): 1.02
NanoBRET Fold Response ([2]; tracer at 1μM): 1.00
NanoBRET Fold Response ([3]; tracer at 0.1μM): 1.38
NanoBRET Fold Response ([3]; tracer at 1μM): 2.14

Compound: CN(C)CCC=C1c2ccccc2CCc2ccc(C(=O)NCCNC(=O)CCOCCOCCOCCOCCNC(=O)CCc3ccc4n3[B-](F)(F)[N+]3=C(c5ccc[nH]5)C=CC3=C4)cc21 [Amitriptyline-b-2-NB590]
NanoBRET Fold Response [1, 5]: 1.43
NanoBRET Fold Response [2, 5]: 1.05
NanoBRET Fold Response [2, 6]: 1.19
NanoBRET Fold Response [3, 5]: 4.73
NanoBRET Fold Response [3, 6]: 2.23
NanoBRET Fold Response ([4]; GPR50, tracer 0.1μM): 0.99
NanoBRET Fold Response ([4]; GPR50, tracer 1μM): 0.99

Compound: CN(CCC=C1c2ccccc2CCc2ccccc21)C(=O)CCOCCOCCOCCOCCNC(=O)CCc1ccc2n1[B-](F)(F)[N+]1=C(c3ccc[nH]3)C=CC1=C2 [Amitriptyline-e-2-NB590]
NanoBRET Fold Response ([1]; tracer at 1μM): 1.02
NanoBRET Fold Response ([2]; tracer at 1μM): 1.04
NanoBRET Fold Response ([3]; tracer at 1μM): 1.32

Compound: CN1CCN(C2=Nc3cc(Cl)ccc3Nc3ccc(CNC(=O)CCOCCOCCOCCOCCNC(=O)CCc4ccc5n4[B-](F)(F)[N+]4=C(c6ccc[nH]6)C=CC4=C5)cc32)CC1 [Clozapine-b-2-NB590]
NanoBRET Fold Response ([1]; HTR1F, 0.1μM tracer): 1.00
NanoBRET Fold Response ([1]; HTR1F, 1μM tracer): 1.28
NanoBRET Fold Response ([2]; CCR10, 0.1μM tracer): 1.01
NanoBRET Fold Response ([2]; CCR10, 1μM tracer): 1.15
NanoBRET Fold Response ([4]; GPR50, 0.1μM tracer): 0.98
NanoBRET Fold Response ([4]; GPR50, 1μM tracer): 0.97

Compound: CN1CCN(C2=Nc3cc(Cl)ccc3N(CC(=O)NCCOCCOCCOCCOCCNC(=O)CCc3ccc4n3[B-](F)(F)[N+]3=C(c5ccc[nH]5)C=CC3=C4)c3ccccc32)CC1 [Clozapine-c-2-NB590]
NanoBRET Fold Response ([1]; HTR1F, 0.1μM tracer): 1.02
NanoBRET Fold Response ([1]; HTR1F, 1μM tracer): 0.91
NanoBRET Fold Response ([2]; CCR10, 0.1μM tracer): 1.00
NanoBRET Fold Response ([2]; CCR10, 1μM tracer): 0.91

Results, then the compound that gave them:

NanoBRET Fold Response ([1]; HTR1F, 0.1μM): 1.04
NanoBRET Fold Response ([1]; HTR1F, 1μM): 1.02
NanoBRET Fold Response ([2]; CCR10, 0.1μM): 1.00
NanoBRET Fold Response ([2]; CCR10, 1μM): 1.07
NanoBRET Fold Response ([3]; ADRA1A, 0.1μM): 1.06
NanoBRET Fold Response ([3]; ADRA1A, 1μM): 1.06
NanoBRET Fold Response ([4]; GPR50, 0.1μM): 0.97
NanoBRET Fold Response ([4]; GPR50, 1μM): 0.97
Compound: CCOC(=O)c1cc(C#N)c(N2CCC(C(=O)NS(=O)(=O)Cc3ccccc3/C=C/C(=O)NCCNC(=O)CCc3ccc4n3[B-](F)(F)[N+]3=C(c5ccc[nH]5)C=CC3=C4)CC2)nc1C [AZD1283-1-NB590]

NanoBRET Fold Response ([1]; HTR1F, other tracers/Aminopotentidine (unmodified), 0.1μM): 1.04
NanoBRET Fold Response ([1]; HTR1F, other tracers/Aminopotentidine (unmodified), 1μM): 1.21
NanoBRET Fold Response ([3]; ADRA1A, other tracers/Aminopotentidine (unmodified), 0.1μM): 1.03
NanoBRET Fold Response ([3]; ADRA1A, other tracers/Aminopotentidine (unmodified), 1μM): 1.07
Compound: N#CN/C(=N\CCNC(=O)c1ccc(N)cc1)NCCCOc1cccc(CN2CCCCC2)c1 [Aminopotentidine (unmodified)]

NanoBRET Fold Response ([1]; HTR1F, tracer 0.1μM): 1.07
NanoBRET Fold Response ([1]; HTR1F, tracer 1μM): 1.05
NanoBRET Fold Response ([2]; CCR10, tracer 0.1μM): 1.00
NanoBRET Fold Response ([2]; CCR10, tracer 1μM): 1.01
NanoBRET Fold Response ([3]; ADRA1A, tracer 0.1μM): 1.05
NanoBRET Fold Response ([3]; ADRA1A, tracer 1μM): 1.00
NanoBRET Fold Response ([4]; GPR50, tracer 0.1μM): 1.02
NanoBRET Fold Response ([4]; GPR50, tracer 1μM): 0.97
Compound: N#CN=C(NCCCOc1cccc(CN2CCCCC2)c1)NCCNC(=O)CCOCCOCCOCCOCCNC(=O)CCc1ccc2n1[B-](F)(F)[N+]1=C(c3ccc[nH]3)C=CC1=C2 [Aminopotentidine-2-NB590]

NanoBRET Fold Response ([1]; 0.1μM tracer): 0.79
NanoBRET Fold Response ([1]; 1μM tracer): 0.79
NanoBRET Fold Response ([2]; 0.1μM tracer): 0.84
NanoBRET Fold Response ([2]; 1μM tracer): 0.85
NanoBRET Fold Response ([3]; 0.1μM tracer): 0.96
NanoBRET Fold Response ([3]; 1μM tracer): 0.95
NanoBRET Fold Response ([4]; 0.1μM tracer): 0.95
NanoBRET Fold Response ([4]; 1μM tracer): 0.91
Compound: COc1ccc2c(n1)c(CCNC(C)=O)cn2CCNC(=O)CCc1ccc2n1[B-](F)(F)[N+]1=C(c3ccc[nH]3)C=CC1=C2 [Azamelatonin-1-NB590]

NanoBRET Fold Response ([1]; 0.1μM tracer): 0.92
NanoBRET Fold Response ([1]; 1μM tracer): 0.95
NanoBRET Fold Response ([2]; 0.1μM tracer): 0.87
NanoBRET Fold Response ([2]; 1μM tracer): 1.18
NanoBRET Fold Response ([3]; 0.1μM tracer): 1.06
NanoBRET Fold Response ([3]; 1μM tracer): 0.94
NanoBRET Fold Response ([4]; 0.1μM tracer): 0.96
NanoBRET Fold Response ([4]; 1μM tracer): 1.01
Compound: COc1ccc2[nH]c(-c3ccc(CNC(=O)CCOCCOCCOCCOCCNC(=O)CCc4ccc5n4[B-](F)(F)[N+]4=C(c6ccc[nH]6)C=CC4=C5)cc3)c(CCNC(C)=O)c2n1 [AzomelatoninICO9-2-NB590]

NanoBRET Fold Response ([1]; HTR1F, 0.1μM tracer): 1.77
NanoBRET Fold Response ([1]; HTR1F, 1μM tracer): 2.34
NanoBRET Fold Response ([2]; CCR10, 0.1μM tracer): 1.04
NanoBRET Fold Response ([2]; CCR10, 1μM tracer): 1.01
NanoBRET Fold Response ([3]; ADRA1A, 0.1μM tracer): 3.90
NanoBRET Fold Response ([3]; ADRA1A, 1μM tracer): 3.21
NanoBRET Fold Response ([4]; GPR50, 0.1μM tracer): 1.04
NanoBRET Fold Response ([4]; GPR50, 1μM tracer): 1.00
Compound: O=C(CCOCCOCCOCCOCCNC(=O)CCc1ccc2n1[B-](F)(F)[N+]1=C(c3ccc[nH]3)C=CC1=C2)NCCCN1CCN(C2=Nc3cc(Cl)ccc3Nc3ccccc32)CC1 [Clozapine-a-2-NB590]
